Values belong to the molecule of their own block, whether it stands above or below them.
Biological target: T1, alpha 1A adrenoceptors (Homo sapiens, UniProt P35348)
T1 construct: expressed in transfected cells; host or cells: CHO-K1 (clone 13)
T1 sequence (P35348 1-466): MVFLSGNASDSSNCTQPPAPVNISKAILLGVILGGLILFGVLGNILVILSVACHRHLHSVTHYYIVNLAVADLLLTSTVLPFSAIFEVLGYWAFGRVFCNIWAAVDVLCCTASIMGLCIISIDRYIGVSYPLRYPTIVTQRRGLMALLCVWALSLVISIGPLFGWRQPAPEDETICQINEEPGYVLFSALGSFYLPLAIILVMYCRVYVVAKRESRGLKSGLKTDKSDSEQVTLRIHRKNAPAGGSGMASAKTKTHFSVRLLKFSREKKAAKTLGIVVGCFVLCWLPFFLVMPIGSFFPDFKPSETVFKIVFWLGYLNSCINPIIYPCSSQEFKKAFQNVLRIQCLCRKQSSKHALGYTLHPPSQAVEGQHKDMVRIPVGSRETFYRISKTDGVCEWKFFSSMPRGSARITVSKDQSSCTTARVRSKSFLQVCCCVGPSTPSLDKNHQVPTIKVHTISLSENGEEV
Assay: Functional assay: fluorescent dye (Fluo-3, FLIPR) determination of intracellular calcium in CHO-K1 cells expressing alpha 1A adrenoceptors (clone 13)
Assay type: cell-based
Details: for EC50: CHO-K1 cells expressing alpha 1A adrenoceptor (clone 13), agonist, intracellular calcium, FLIPR, read-out: CHO-1A-13 pEC50 (converted); for CHO-1A-13 IA: intrinsic activity: maximum response relative to norepinephrine bitartrate (full agonist), CHO-K1 alpha 1A clone 13
Description: The activity of potential α1A/L activity in vitro was determined by evaluating the potency and relative intrinsic activity (relative to norepinephrine or phenylephrine) of standard and novel compounds using fluorescent dye determination of intracellular calcium concentrations.
This example illustrates a functional assay which can be used to determine α1A/L agonist activity of Compounds of Formula I.
The activity of compounds of this invention in vitro was examined using fluorescent dye determination of intracellular calcium concentrations.
Chinese hamster ovary cells CHO-K1 expressing the alpha 1A adrenoceptors (clone 13) are washed 4 times (approx. 300 μL/well) with fluorometric imaging plate reader (FLIPR) buffer (Hank's buffered saline solution (HBSS), 2 mM CaCl2, 10 mM HEPES, 2.5 mM probenecid, 100 μM ascorbic acid), with a final volume of 150 μL/well. Cells are loaded with 50 μL/well of 8 μM Fluo-3 AM (Molecular Probes, Eugene, Oreg.), for a final concentration of 2 μM Fluo-3 AM. Cells are then incubated for 60 min at 37° C. Following dye loading, cells are washed 4 times (approx. 300 μL/well) with FLIPR buffer with a final volume of 150 μL/well.
Test compound, control compound and reference compound are run in quadruplicate, 8-point curves on each plate with a final assay concentration range of 10^−4 M to 10^−11 M for each compound. All compounds are dissolved in DMSO at 10 mM, and serially diluted in FLIPR buffer.
The assay plate is placed in the FLIPR incubation chamber and a baseline fluorescence measurement (excitation @ 488 nm and emission @ 510-570 nm) is obtained (15 sec interval). An experimental run is then commenced. The reaction is started with the addition of 50 μL/well (at 4× final concentration) of test, control, or reference compound solution from the agonist plate to the assay plate to all 96 wells simultaneously. Fluorescence is measured for 120 sec at 1 sec intervals. Then, a second addition of 5 μM ionomycin (50 μL/well from 5× concentration ionomycin plate) is added to the assay plate. Fluorescence is measured for 30 sec at 1 sec intervals. All experiments are conducted at room temperature.
For each assay plate, responses (increase in peak fluorescence) in each well following addition of agonist (test, control and reference) are determined. These responses may be expressed as raw CFU (Corrected Fluorescence Units), as a % maximum ionomycin response or other unit as determined by the investigator.
For test compound, control compound (Norepinephrine (NE) bitartrate), and reference compound, the concentration producing a 50% increase in control response (EC50) is determined using iterative curve-fitting methods. Excel spreadsheet or Kaleidagraph software are used to fit data to the general logistic function (E=B+Emax·A^nH/A^nH+EC50^nH), where B is the corrected baseline fluorescence units (defined as zero), A is the concentration of agonist added and nH is the Hill slope (constrained to unity). EC50 values and maxima (Emax) for each curve can be estimated objectively using this software.
In addition, the intrinsic activity (a) is determined. Intrinsic activity is defined as the maximum response to test agonist divided by the maximum response to a full agonist acting through the same receptor. For these experiments, the full agonist is defined as Norepinephrine (NE) bitartrate (control).
As used herein an agonist is a compound that elicits a maximal response greater of that of norepinephrine with a pEC50>5.5.

SMILES: CCS(=O)(=O)Nc1ccc(CC2=NCCN2)cc1Cl [Compound 13, Ethanesulfonic acid [2-chloro-4-(4,5-dihydro-1H-imidazol-2-ylmethyl)-phenyl]-amide]
EC50: 661 nM | CHO-1A-13 IA: 0.16

SMILES: COc1cc(NS(C)(=O)=O)c(OC)cc1CC1=NCCN1 [Compound 22, N-[4-(4,5-Dihydro-1H-imidazol-2-ylmethyl)-2,5-dimethoxy-phenyl]-methanesulfonamide]
EC50: 692 nM | CHO-1A-13 IA: 0.27

SMILES: COc1cc(CC2=NCCN2)c(Cl)cc1NS(C)(=O)=O [Compound 25, N-[5-Chloro-4-(4,5-dihydro-1H-imidazol-2-ylmethyl)-2-methoxy-phenyl]-methanesulfonamide]
EC50: 75.9 nM | CHO-1A-13 IA: 0.81

The next lines start with the values.

EC50: 170 nM | CHO-1A-13 IA: 0.92
SMILES: COc1cc(CC2=NCCN2)ccc1NS(C)(=O)=O [Compound 2, N-[4-(4,5-Dihydro-1H-imidazol-2-ylmethyl)-2-methoxy-phenyl]-methanesulfonamide]

EC50: 347 nM | CHO-1A-13 IA: 0.43
SMILES: COc1cc(NS(C)(=O)=O)ccc1CC1=NCCN1 [Compound 6, N-[4-(4,5-Dihydro-1H-imidazol-2-ylmethyl)-3-methoxy-phenyl]-methanesulfonamide]

EC50: 302 nM | CHO-1A-13 IA: 0.65
SMILES: CS(=O)(=O)Nc1ccc(CC2=NCCN2)c2ccoc12 [Compound 8, N-[4-(4,5-Dihydro-1H-imidazol-2-ylmethyl)-benzofuran-7-yl]-methanesulfonamide]

Reference: US7407980B2, “Imidazolinylmethyl aralkylsulfonamides” (Roche Palo Alto LLC, priority 2002, dated 2008)
